The target in one test is T1, CDK6-CYCLIND3 (Homo sapiens, UniProt Q00534).
T1 construct: purchased Carna
In words: CDK inhibition assay (microfluidic LabChip, IC50 format). The format is biochemical.

The target of a further test is CDK4-CYCLIND1 (Homo sapiens, UniProt P11802). The test is described as above.
Setting [1] is: Table 4b, upper part, read-out: CDK6 IC50.
The mark [2] stands for this setting: CDK4 IC50, Table 4b, upper part.
Setting [3] is: Table 3, second value of the cell CDK4/CDK6, value of the racemate, read-out: Racemate Activity CDK6.
Where [4] appears, read: Racemate Activity CDK4, Table 3, first value of the cell CDK4/CDK6, value of the racemate.

Like-named read-outs stand apart in the source and are kept apart here.

Chain of CDK4-CYCLIND1 (P11802 whole entry): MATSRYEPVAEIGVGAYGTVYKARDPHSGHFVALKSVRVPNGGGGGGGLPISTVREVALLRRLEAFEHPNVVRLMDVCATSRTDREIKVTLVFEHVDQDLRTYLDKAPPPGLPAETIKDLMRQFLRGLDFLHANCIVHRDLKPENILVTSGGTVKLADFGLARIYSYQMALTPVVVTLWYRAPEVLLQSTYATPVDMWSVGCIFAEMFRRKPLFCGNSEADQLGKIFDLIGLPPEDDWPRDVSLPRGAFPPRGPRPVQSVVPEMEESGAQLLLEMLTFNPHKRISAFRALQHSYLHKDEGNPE
Chain of CDK4-CYCLIND1 (P24385 whole entry partner): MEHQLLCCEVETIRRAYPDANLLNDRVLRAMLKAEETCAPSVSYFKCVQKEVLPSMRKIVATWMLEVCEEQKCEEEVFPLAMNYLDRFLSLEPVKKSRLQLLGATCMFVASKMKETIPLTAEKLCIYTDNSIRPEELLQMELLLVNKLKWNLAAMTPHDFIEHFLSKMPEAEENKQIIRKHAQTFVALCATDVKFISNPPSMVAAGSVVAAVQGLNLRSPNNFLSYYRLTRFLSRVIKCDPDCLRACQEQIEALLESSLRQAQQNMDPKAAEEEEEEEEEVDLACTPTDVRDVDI
T1 sequence (Q00534 whole entry): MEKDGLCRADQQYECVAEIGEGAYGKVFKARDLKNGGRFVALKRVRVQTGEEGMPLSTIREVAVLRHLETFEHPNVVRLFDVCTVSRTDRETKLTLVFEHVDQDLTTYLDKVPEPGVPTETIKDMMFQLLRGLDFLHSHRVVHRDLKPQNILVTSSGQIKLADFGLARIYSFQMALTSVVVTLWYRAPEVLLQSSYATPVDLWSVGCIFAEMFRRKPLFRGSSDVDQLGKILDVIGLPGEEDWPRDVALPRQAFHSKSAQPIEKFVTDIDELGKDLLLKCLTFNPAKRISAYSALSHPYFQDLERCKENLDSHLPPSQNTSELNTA
T1 sequence (P30281 whole entry partner): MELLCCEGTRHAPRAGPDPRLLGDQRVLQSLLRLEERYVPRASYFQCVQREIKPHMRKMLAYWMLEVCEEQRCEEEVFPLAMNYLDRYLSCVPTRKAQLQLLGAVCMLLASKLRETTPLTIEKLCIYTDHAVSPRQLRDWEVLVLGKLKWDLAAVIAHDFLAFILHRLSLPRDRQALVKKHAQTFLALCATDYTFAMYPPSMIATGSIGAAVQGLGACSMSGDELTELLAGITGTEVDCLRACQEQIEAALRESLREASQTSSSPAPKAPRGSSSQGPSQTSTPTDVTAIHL
Method for CDK4-CYCLIND1: Inhibition assays were performed using microfluidic LabChip 300 Drug Discovery System from Caliper Life Sciences. […] The assay has a total volume of 10 μL consisting of 5 μL of enzyme and buffer and 5 μL of substrate and buffer. The test compounds were diluted in 100% dimethylsulfoxide (DMSO) using 3-fold dilution steps. […] Compounds were tested in a single well for each dilution and the final concentration of DMSO was maintained at 1%.
The assay buffer contained 100 mM HEPES, pH 7.5, 0.01% Triton X-100, 0.1% bovine serum albumin (BSA), 5 mM MgCl2; 1 mM dithiothreitol (DTT), 10 μM sodium orthovanadate, and 10 μM β-glycerophosphate.
The assay was conducted by adding 5 μL of enzyme, adenosine triphosphate (ATP) and buffer to an assay plate. A 100 nL aliquot of the diluted compounds were added to the plate. The assay was initiated by the addition of 5 μL of phosphoenolpyruvate substrate (PEP) in buffer. […] The reaction was terminated by the addition of EDTA. The plates were analyzed using a Caliper LabChip 3000.
Additional inhibition assays were performed as described above.
The assays were conducted as described above for the racemates.

`CN1CCC2(Cc3cnc(Nc4ccc(N5CCNCC5)cc4)nc3N(C3CCCC3)C2=O)C1=O` (stereo not drawn) [Example D1, 8-cyclopentyl-1′-methyl-2-((4-(piperazin-1-yl)phenyl)amino)-5,8-dihydro-7H-spiro[pyrido[2,3-d]pyrimidine-6,3′-pyrrolidine]-2′,7-dione]: the values for the IC50 at CDK6-CYCLIND3 (setting [1]) and against CDK4-CYCLIND1 (setting [2]) were 84.1 nM and 27 nM, respectively.

As to `CC(C)N1CCN(c2ccc(Nc3ncc4c(n3)N(C3CCCC3)C(=O)C3(CCN(C)C3=O)C4)cc2)CC1` (stereo not drawn) [Example D2, 8-cyclopentyl-2-((4-(4-isopropylpiperazin-1-yl)phenyl)amino)-1′-methyl-5,8-dihydro-7H-spiro[pyrido[2,3-d]pyrimidine-6,3′-pyrrolidine]-2′,7-dione], the results for the IC50 on CDK6-CYCLIND3 (setting [1]) and against CDK4-CYCLIND1 (setting [2]) were 360 nM and 83.6 nM, respectively.

Consider `O=C1NCCC12Cc1cnc(Nc3ccc(N4CCNCC4)cc3)nc1N(C1CCCC1)C2=O` (stereo not drawn) [Example D3, 8-cyclopentyl-2-((4-(piperazin-1-yl)phenyl)amino)-5,8-dihydro-7H-spiro[pyrido[2,3-d]pyrimidine-6,3′-pyrrolidine]-2′,7-dione], for which the IC50 on CDK6-CYCLIND3 (setting [3]) is 6.03 nM; at CDK6-CYCLIND3 (setting [1]), 6.03 nM; against CDK4-CYCLIND1 (setting [2]) it was 2.81 nM; at CDK4-CYCLIND1 (setting [4]), 2.81 nM.

`CN1CCN(c2ccc(Nc3ncc4c(n3)N(C3CCCC3)C(=O)C3(CCNC3=O)C4)cc2)CC1` (stereo not drawn) [Example D4, 8-cyclopentyl-2-((4-(4-methylpiperazin-1-yl)phenyl)amino)-5,8-dihydro-7H-spiro[pyrido[2,3-d]pyrimidine-6,3′-pyrrolidine]-2′,7-dione]: the IC50 at CDK6-CYCLIND3 (setting [1]) was found to be 4.9 nM.

On to `CC(C)N1CCN(c2ccc(Nc3ncc4c(n3)N(C3CCCC3)C(=O)C3(CCNC3=O)C4)cc2)CC1` (stereo not drawn) [Example D5], for which the figures for the IC50 on CDK6-CYCLIND3 (setting [1]) and against CDK4-CYCLIND1 (setting [2]) were 5.67 nM and 2.64 nM, respectively.

`CC(C)N1CCN(c2ccc(Nc3ncc4c(n3)N(C3CCCC3)C(=O)C3(CCNC3=O)C4)cn2)CC1` (stereo not drawn) [Example D6, 8-cyclopentyl-2-((6-(4-isopropylpiperazin-1-yl)pyridin-3-yl)amino)-5,8-dihydro-7H-spiro[pyrido[2,3-d]pyrimidine-6,3′-pyrrolidine]-2′,7-dione]: the IC50 amounted to 3.94 nM on CDK6-CYCLIND3 (setting [1]) and 1.88 nM against CDK4-CYCLIND1 (setting [2]).

On to `O=C1NCCC12Cc1cnc(Nc3ccc(N4CCNCC4)nc3)nc1N(C1CCCC1)C2=O` (stereo not drawn) [Example D7, 8-cyclopentyl-2-((6-(piperazin-1-yl)pyridin-3-yl)amino)-5,8-dihydro-7H-spiro[pyrido[2,3-d]pyrimidine-6,3′-pyrrolidine]-2′,7-dione], for which the figures for the IC50 on CDK6-CYCLIND3 (setting [1]) and against CDK4-CYCLIND1 (setting [2]) were 13.1 nM and 8.68 nM, respectively.

For `CN1CCN(c2ccc(Nc3ncc4c(n3)N(C3CCCC3)C(=O)C3(CCNC3=O)C4)nc2)CC1` (stereo not drawn) [Example D8, 8-cyclopentyl-2-((5-(4-methylpiperazin-1-yl)pyridin-2-yl)amino)-5,8-dihydro-7H-spiro[pyrido[2,3-d]pyrimidine-6,3′-pyrrolidine]-2′,7-dione], the results for the IC50 on CDK6-CYCLIND3 (setting [1]) and on CDK4-CYCLIND1 (setting [2]) were 3.92 nM and 2.06 nM, respectively.

Turning to `CC(C)N1CCN(c2ccc(Nc3ncc4c(n3)N(C3CCCC3)C(=O)C3(CCNC3=O)C4)nc2)CC1` (stereo not drawn) [Example D9, 8-cyclopentyl-2-((5-(4-isopropylpiperazin-1-yl)pyridin-2-yl)amino)-5,8-dihydro-7H-spiro[pyrido[2,3-d]pyrimidine-6,3′-pyrrolidine]-2′,7-dione], the IC50 on CDK6-CYCLIND3 (setting [1]) was 6.11 nM; against CDK4-CYCLIND1 (setting [2]) it was 2.99 nM.

As to `CC(C)N1CCN(c2ccc(Nc3ncc4c(n3)N(C3CCCC3)C(=O)C3(CCNC3=O)C4)cc2F)CC1` (stereo not drawn) [Example D10, 8-cyclopentyl-2-((3-fluoro-4-(4-isopropylpiperazin-1-yl)phenyl)amino)-5,8-dihydro-7H-spiro[pyrido[2,3-d]pyrimidine-6,3′-pyrrolidine]-2′,7-dione], the IC50 on CDK6-CYCLIND3 (setting [3]) came to 3.5 nM; on CDK6-CYCLIND3 (setting [1]), 3.53 nM; against CDK4-CYCLIND1 (setting [2]) it was 1.5 nM; against CDK4-CYCLIND1 (setting [4]), 1.5 nM.

`O=C1NCCC12Cc1cnc(Nc3ccc(N4CCNCC4)c(F)c3)nc1N(C1CCCC1)C2=O` (stereo not drawn) [Example D11, 8-cyclopentyl-2-((3-fluoro-4-(piperazin-1-yl)phenyl)amino)-5,8-dihydro-7H-spiro[pyrido[2,3-d]pyrimidine-6,3′-pyrrolidine]-2′,7-dione]: the IC50 was 3.5 nM at CDK6-CYCLIND3 (setting [3]), 4.38 nM at CDK6-CYCLIND3 (setting [1]), 2.09 nM against CDK4-CYCLIND1 (setting [2]) and 2.1 nM at CDK4-CYCLIND1 (setting [4]).

For the compound `CN1CCN(c2ccc(Nc3ncc4c(n3)N(C3CCCC3)C(=O)C3(CCNC3=O)C4)cc2F)CC1` (stereo not drawn) [Example D12, 8-cyclopentyl-2-((3-fluoro-4-(4-methylpiperazin-1-yl)phenyl)amino)-5,8-dihydro-7H-spiro[pyrido[2,3-d]pyrimidine-6,3′-pyrrolidine]-2′,7-dione], the IC50 at CDK6-CYCLIND3 (setting [3]) was determined as 2.9 nM; on CDK6-CYCLIND3 (setting [1]), 2.86 nM; against CDK4-CYCLIND1 (setting [2]), 1.83 nM; at CDK4-CYCLIND1 (setting [4]), 1.8 nM.

Turning to `CN(C)CCOc1ccc(Nc2ncc3c(n2)N(C2CCCC2)C(=O)C2(CCNC2=O)C3)cc1` (stereo not drawn) [Example D13, 8-cyclopentyl-2-((4-(2-(dimethylamino)ethoxy)phenyl)amino)-5,8-dihydro-7H-spiro[pyrido[2,3-d]pyrimidine-6,3′-pyrrolidine]-2′,7-dione], the IC50 at CDK6-CYCLIND3 (setting [1]) came out at 6.38 nM; against CDK4-CYCLIND1 (setting [2]), 3.35 nM.

For the compound `CN(C)CCOc1ccc(Nc2ncc3c(n2)N(C2CCCC2)C(=O)C2(CCNC2=O)C3)cn1` (stereo not drawn) [Example D14, 8-cyclopentyl-2-((6-(2-(dimethylamino)ethoxy)pyridin-3-yl)amino)-5,8-dihydro-7H-spiro[pyrido[2,3-d]pyrimidine-6,3′-pyrrolidine]-2′,7-dione], the IC50 is 20.7 nM at CDK6-CYCLIND3 (setting [1]) and 10.7 nM against CDK4-CYCLIND1 (setting [2]).

With `O=C1NCCC12Cc1cnc(Nc3ccc(OCCN4CCCC4)nc3)nc1N(C1CCCC1)C2=O` (stereo not drawn) [Example D15, 8-cyclopentyl-2-((6-(2-(pyrrolidin-1-yl)ethoxy)pyridin-3-yl)amino)-5,8-dihydro-7H-spiro[pyrido[2,3-d]pyrimidine-6,3′-pyrrolidine]-2′,7-dione], the figures for the IC50 at CDK6-CYCLIND3 (setting [1]) and against CDK4-CYCLIND1 (setting [2]) were 15.8 nM and 7.08 nM, respectively.

For `O=C1NCCC12Cc1cnc(Nc3ccc(OCCN4CCCC4)c(F)c3)nc1N(C1CCCC1)C2=O` (stereo not drawn) [Example D16, 8-cyclopentyl-2-((3-fluoro-4-(2-(pyrrolidin-1-yl)ethoxy)phenyl)amino)-5,8-dihydro-7H-spiro[pyrido[2,3-d]pyrimidine-6,3′-pyrrolidine]-2′,7-dione], the IC50 was found to be 8.81 nM on CDK6-CYCLIND3 (setting [1]) and 5.25 nM against CDK4-CYCLIND1 (setting [2]).

For `O=C1NCCC12Cc1cnc(Nc3ccc(N4CCOCC4)c(F)c3)nc1N(C1CCCC1)C2=O` (stereo not drawn) [Example D17, 8-cyclopentyl-2-((3-fluoro-4-morpholinophenyl)amino)-5,8-dihydro-7H-spiro[pyrido[2,3-d]pyrimidine-6,3′-pyrrolidine]-2′,7-dione], the IC50 at CDK6-CYCLIND3 (setting [1]) is 10.2 nM; against CDK4-CYCLIND1 (setting [2]) it was 4.41 nM.

Regarding `CC(C)N1CCN(c2ccc(Nc3ncc4c(n3)N(C3CCCC3)C(=O)C3(CCN(C)C3=O)C4)cn2)CC1` (stereo not drawn) [Example D18, 8-cyclopentyl-2-((6-(4-isopropylpiperazin-1-yl)pyridin-3-yl)amino)-1′-methyl-5,8-dihydro-7H-spiro[pyrido[2,3-d]pyrimidine-6,3′-pyrrolidine]-2′,7-dione], the IC50 on CDK6-CYCLIND3 (setting [1]) amounted to 166 nM; on CDK4-CYCLIND1 (setting [2]), 53 nM.

As to `CN1CCN(c2ccc(Nc3ncc4c(n3)N(C3CCCC3)C(=O)C3(CCN(C)C3=O)C4)cc2F)CC1` (stereo not drawn) [Example D19, 8-cyclopentyl-2-((3-fluoro-4-(4-methylpiperazin-1-yl)phenyl)amino)-1′-methyl-5,8-dihydro-7H-spiro[pyrido[2,3-d]pyrimidine-6,3′-pyrrolidine]-2′,7-dione], the IC50 on CDK6-CYCLIND3 (setting [1]) came out at 97.2 nM; against CDK4-CYCLIND1 (setting [2]), 33.6 nM.

As for `CN1C(=O)CC2(Cc3cnc(Nc4ccc(N5CCNCC5)cc4)nc3N(C3CCCC3)C2=O)C1=O` (stereo not drawn) [Example D20, 8-cyclopentyl-1′-methyl-2-((4-(piperazin-1-yl)phenyl)amino)-5,8-dihydro-7H-spiro[pyrido[2,3-d]pyrimidine-6,3′-pyrrolidine]-2′,5′,7-trione], the IC50 is 198 nM on CDK6-CYCLIND3 (setting [1]) and 50.7 nM at CDK4-CYCLIND1 (setting [2]).

As for `CN1CCN(c2ccc(Nc3ncc4c(n3)N(C3CCCC3)C(=O)C3(CC(=O)N(C)C3=O)C4)cc2)CC1` (stereo not drawn) [Example D21, 8-cyclopentyl-1′-methyl-2-((4-(4-methylpiperazin-1-yl)phenyl)amino)-5,8-dihydro-7H-spiro[pyrido[2,3-d]pyrimidine-6,3′-pyrrolidine]-2′,5′,7-trione], the figures for the IC50 on CDK6-CYCLIND3 (setting [1]) and on CDK4-CYCLIND1 (setting [2]) were 166 nM and 51.2 nM, respectively.

As to `CC(C)N1CCN(c2ccc(Nc3ncc4c(n3)N(C3CCCC3)C(=O)C3(CC(=O)N(C)C3=O)C4)cc2)CC1` (stereo not drawn) [Example D22, 8-cyclopentyl-2-((4-(4-isopropylpiperazin-1-yl)phenyl)amino)-1′-methyl-5,8-dihydro-7H-spiro[pyrido[2,3-d]pyrimidine-6,3′-pyrrolidine]-2′,5′,7-trione], the IC50 on CDK6-CYCLIND3 (setting [1]) stood at 129 nM; against CDK4-CYCLIND1 (setting [2]) it was 28.6 nM.

Take `CN1C(=O)CC2(Cc3cnc(Nc4ccc(N5CCNCC5)cn4)nc3N(C3CCCC3)C2=O)C1=O` (stereo not drawn) [Example D23, 8-cyclopentyl-1′-methyl-2-((5-(piperazin-1-yl)pyridin-2-yl)amino)-5,8-dihydro-7H-spiro[pyrido[2,3-d]pyrimidine-6,3′-pyrrolidine]-2′,5′,7-trione]: the IC50 on CDK6-CYCLIND3 (setting [1]) was 65400 nM; against CDK4-CYCLIND1 (setting [2]), 17100 nM.

For `O=C1NCC[C@@]12Cc1cnc(N3CC4(CNC4)C3)nc1N(C1CCCC1)C2=O` [Example D198, (S)-8-cyclopentyl-2-(2,6-diazaspiro[3.3]heptan-2-yl)-5,8-dihydro-7H-spiro[pyrido[2,3-d]pyrimidine-6,3′-pyrrolidine]-2′,7-dione], the IC50 at CDK6-CYCLIND3 (Table 4b, lower part, read-out: CDK6 CyclinD3 IC50) was found to be 16200 nM.

Values taken from patent US20230048132A1, “CYCLIN-DEPENDENT KINASE INHIBITORS” (SPV THERAPEUTICS INC., priority 2018, published 2023).
